Measurements published in patent US7129381B2, “Glucopyranosyloxybenzylbenzene derivatives, medicinal compositions containing the same and intermediates in the production thereof” (Kissei Pharmaceutical Co., Ltd., priority 2000, dated 2006).

Tested on: ICR mice
Assay: Acute toxicity test
Format: in vivo
Settings: 300 mg/kg subcutaneous, male ICR mice, 5 animals, observation for 24 hours
Protocol: A mixture (saline:polyethylene glycol 400:ethanol =5:4:1) was added to a test compound to prepare 30 mg/mL solution. As experimental animals, 5 week old male ICR mice (CLEA JAPAN, INC. 29–35 g, 5 animals in each group), which were fasted for 4 hours, were used. The above solution was subcutaneously administered at a dose of 10 mL/kg (300 mg/kg) to the above experimental animals and then observation for 24 hours was performed.

With `COc1ccc(Cc2c(C)cc(C)cc2O[C@@H]2O[C@H](CO)[C@@H](O)[C@H](O)[C@H]2O)cc1` [Example 37, 2-(4-Methoxybenzyl)-3,5-dimethylphenyl β-D-glucopyranoside] the Death number was 0/5.
